Common to all, as to type: cell-based
The target in assay [1] is T1, α1β1 GABAA receptors (Rattus norvegicus, UniProt P15431+P62813).
T1 construct: expressed in transfected cells; host or cells: Xenopus laevis oocytes, mRNA injected
Briefly: Two electrode voltage clamp in Xenopus laevis oocytes, α1β1. Conditions: α1β1. An excerpt: (§1) cDNA’s of rat GABAA receptor subunits α1, α4, β1, β2, β3 and γ2S were cloned as described. cDNAs of the rat subunits α2, α3 and α5 were gifts from P. Malherbe, that of α6 and γ1 were gifts of P. Seeburg and that of δ was a gift of C. Czajkowski. The mutants were constructed using the Q5 Site-Directed Mutagenesis Kit (New England Biolabs) following manufacturer’s instruction. We used the wild-type rat β3-pCI vector as template and the primers […] and […] resulting in a substitution of amino acid N41 (AAC) to R (AGG). We used the wild-type rat β1-pCI vector as template and the primers […] and […] resulting in a substitution of amino acid R41 (CGG) to N (AAC). The mutated subunits were confirmed by sequencing.
(§2) In vitro transcription of mRNA was based on the cDNA expression vectors encoding for rat GABAA receptor subunits α1–6, β1-3, γ1,2, δ and the two β mutants (β1R41N and β3N41R)[40]. After linearizing the cDNA vectors with appropriate restriction endonucleases, the cDNA was purified and concentrated with the DNA Clean and Contentrator ^TM Kit (Zymoresearch, Catalog No. D4005). Capped transcripts of the purified cDNA were produced using the mMESSAGE mMACHINE® T7 transcription kit (Ambion, TX, USA) and polyadenylated using the Ambion PolyA tailing kit (Ambion). After transcription and polyadenylation the RNA was purified with the MEGAclear ^TM Kit (Ambion, Catalog No. AM1908). The final RNA concentration was measured on NanoDrop® ND-1000 and finally diluted and stored in diethylpyrocarbonate-treated water at −80 °C. For the microinjection, the RNA of αβ receptor combinations was mixed at 1:1 ratio (which leads to αβ receptors that consist of predominantly 3 beta and 2 alpha subunits[27]), for αkβlγm (k = 1–3, l = 1, 3, m = 1, 2) receptors at 1:1:5 ratio, for αkβ3γ2 (k = 4–6) and αkβlδ (k = 1, 4 and 6, l = 1, 3) receptor combinations at 3:1:5 ratio.
(§3) Mature female Xenopus laevis (Nasco, WI) were anesthetized in a bath of ice-cold 0.17% Tricain (Ethyl-m-aminobenzoate, Sigma, MO) before decapitation in full accordance with all rules of the Austrian animal protection law (see http://www.ris.bka.gv.at/Dokumente/BgblAuth/BGBLA_2012_I_114/BGBLA_2012_I_114.pdf) and the Austrian animal experiment by-laws (see https://www.ris.bka.gv.at/Dokumente/BgblAuth/BGBLA_2012_II_522/BGBLA_2012_II_522.pdf) which implement the European Directive 2010/63/EU (see http://eur-lex.europa.eu/LexUriServ/LexUriServ.do?uri=OJ:L:2010:276:0033:0079:en:PDF) into the Austrian law (all information accessed on July 27, 2016). The frog’s ovaries were transferred to ND96 medium (96 mM NaCl, 2 mM KCl, 1 mM MgCl2, 5 mM HEPES; pH 7.5). Stage 5–6 oocytes with the follicle cell layer around them were roughly dissected with forceps into packages of 10–15 cells and washed in Ca^2+-free ND96 medium. Cells were then digested with collagenase (type IA, Sigma, NO, 1 mg/mL ND96) at 18 °C shaking at 30 rpm for 30–60 minutes and gently defolliculated with the aid of a glass pipette with appropriate tip diameter and a platinum loop. Defolliculated cells were stored at 18 °C for at least 6 hours in ND96 solution containing penicillin G (10000 IU/100 mL) and streptomycin (10 mg/100 mL) in order to preselect and exclude damaged cells from further treatment. Healthy defolliculated oocytes were injected with an aqueous solution of mRNA. A total of 4.5 ng of mRNA per oocyte was injected with a Nanoject II (Drummond). After injection of mRNA, oocytes were incubated at 18 °C (ND96 + antibiotic) for 2–3 days for αβ receptors and for 3–4 days for αβγ or αβδ receptors before recording. When cells were measured at later time points, oocytes were stored at +4 °C instead of 18 °C.
(§4) For electrophysiological recordings, oocytes were placed on a nylon-grid in a bath of Ca^2+-containing NDE solution medium [96 mM NaCl, 5 mM HEPES-NaOH (pH 7.5), 2 mM KCl, 1 mM MgCl2, 1.8 mM CaCl2].
(In two-electrode clamp one electrode senses voltage and the other passes current.)

For assay [2], the target named is T2, α1β1R41N GABAA receptors (Rattus norvegicus, UniProt P15431+P62813, R66N).
T2 construct: expressed in transfected cells; host or cells: Xenopus laevis oocytes, mRNA injected
Briefly: Two electrode voltage clamp in Xenopus laevis oocytes, mutant α1β1R41N. Conditions: read-out: % of control current at EC3-5.
Description: as §1, §2, §3, §4

Assay [3] addresses T3, α1β2 GABAA receptors (Rattus norvegicus, UniProt P62813+P63138).
T3 construct: expressed in transfected cells; host or cells: Xenopus laevis oocytes, mRNA injected
As to the kind of experiment: Two electrode voltage clamp in Xenopus laevis oocytes, α1β2. Conditions: read-out: efficacy, % of control current (GABA EC3-5 = 100%), α1β2.
Description: as §1, §2, §3, §4

Assay [4] addresses T4, α1β3 GABAA receptors (Rattus norvegicus, UniProt P62813+P63079).
T4 construct: expressed in transfected cells; host or cells: Xenopus laevis oocytes, mRNA injected
As to the kind of experiment: Two electrode voltage clamp in Xenopus laevis oocytes, α1β3. The conditions noted are these: read-out: efficacy, % of control current (GABA EC3-5 = 100%), α1β3.
Description: as §1, §2, §3, §4

In assay [5] the target is T5, α1β3N41R GABAA receptors (Rattus norvegicus, UniProt P62813+P63079, N66R).
T5 construct: expressed in transfected cells; host or cells: Xenopus laevis oocytes, mRNA injected
Briefly: Two electrode voltage clamp in Xenopus laevis oocytes, mutant α1β3N41R. Conditions: co-applied with GABA EC3-5, read-out: EC50 values for the mutated receptors.
Description: as §1, §2, §3, §4

Here are results for one molecule from PMC5516028, “Molecular tools for GABAA receptors: High affinity ligands for β1-containing subtypes” (Scientific Reports, 2017).

T2 sequence (P62813 28-455): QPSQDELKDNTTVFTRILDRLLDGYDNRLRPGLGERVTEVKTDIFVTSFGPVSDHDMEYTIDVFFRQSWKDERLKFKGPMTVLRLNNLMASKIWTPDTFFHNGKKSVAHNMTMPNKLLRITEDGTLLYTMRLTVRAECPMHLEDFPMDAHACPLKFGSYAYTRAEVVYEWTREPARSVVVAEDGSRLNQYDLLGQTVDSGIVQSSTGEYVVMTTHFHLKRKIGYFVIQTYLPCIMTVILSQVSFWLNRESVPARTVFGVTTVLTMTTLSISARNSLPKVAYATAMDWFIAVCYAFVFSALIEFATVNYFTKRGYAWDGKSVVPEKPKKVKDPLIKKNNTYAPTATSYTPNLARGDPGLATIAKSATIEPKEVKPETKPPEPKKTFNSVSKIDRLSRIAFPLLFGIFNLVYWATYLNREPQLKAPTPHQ
T2 sequence (P15431 26-474 R66N): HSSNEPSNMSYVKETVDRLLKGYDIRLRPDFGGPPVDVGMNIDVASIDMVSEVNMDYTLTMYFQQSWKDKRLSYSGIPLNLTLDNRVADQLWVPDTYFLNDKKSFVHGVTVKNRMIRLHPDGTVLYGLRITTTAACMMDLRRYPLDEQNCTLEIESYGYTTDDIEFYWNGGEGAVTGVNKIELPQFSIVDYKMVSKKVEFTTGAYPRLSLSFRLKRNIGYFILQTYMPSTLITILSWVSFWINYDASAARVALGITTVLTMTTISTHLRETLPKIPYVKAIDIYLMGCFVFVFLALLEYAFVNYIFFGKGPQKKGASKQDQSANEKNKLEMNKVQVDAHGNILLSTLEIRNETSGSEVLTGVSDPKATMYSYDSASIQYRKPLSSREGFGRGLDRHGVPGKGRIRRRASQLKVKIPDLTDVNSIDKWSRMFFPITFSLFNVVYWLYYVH
T4 sequence (P62813 28-455): as the sequence (P62813 28-455) above
T4 sequence (P63079 26-473): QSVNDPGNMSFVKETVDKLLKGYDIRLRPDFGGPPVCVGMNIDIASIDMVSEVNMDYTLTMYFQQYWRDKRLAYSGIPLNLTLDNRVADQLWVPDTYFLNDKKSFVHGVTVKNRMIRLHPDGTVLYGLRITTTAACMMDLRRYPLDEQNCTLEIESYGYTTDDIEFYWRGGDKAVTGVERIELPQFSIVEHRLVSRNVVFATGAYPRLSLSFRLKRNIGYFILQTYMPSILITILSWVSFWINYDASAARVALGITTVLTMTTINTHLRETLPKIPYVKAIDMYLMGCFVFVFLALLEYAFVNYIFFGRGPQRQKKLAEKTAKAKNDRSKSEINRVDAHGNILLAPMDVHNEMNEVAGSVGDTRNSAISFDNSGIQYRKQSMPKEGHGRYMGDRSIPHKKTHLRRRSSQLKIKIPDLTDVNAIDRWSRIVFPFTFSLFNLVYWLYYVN
T3 sequence (P62813 28-455): as the sequence (P62813 28-455) above
T3 sequence (P63138 25-474 limits assumed): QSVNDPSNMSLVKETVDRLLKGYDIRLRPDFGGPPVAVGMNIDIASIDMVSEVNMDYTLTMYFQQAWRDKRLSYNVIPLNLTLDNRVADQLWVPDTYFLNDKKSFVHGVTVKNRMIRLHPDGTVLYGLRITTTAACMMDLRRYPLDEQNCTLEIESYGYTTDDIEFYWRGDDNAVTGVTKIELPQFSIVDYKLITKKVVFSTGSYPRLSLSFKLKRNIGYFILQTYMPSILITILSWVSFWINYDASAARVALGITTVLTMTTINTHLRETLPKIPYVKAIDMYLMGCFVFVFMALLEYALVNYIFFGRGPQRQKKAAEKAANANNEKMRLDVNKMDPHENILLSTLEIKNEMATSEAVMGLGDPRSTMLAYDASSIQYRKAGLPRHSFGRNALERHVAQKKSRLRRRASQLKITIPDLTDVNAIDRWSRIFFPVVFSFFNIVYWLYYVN
T1 sequence (P62813 28-455): as the sequence (P62813 28-455) above
T1 sequence (P15431 26-474): as the sequence (P15431 26-474 R66N) above, with N41R counted along it
T5 sequence (P62813 28-455): as the sequence (P62813 28-455) above
T5 sequence (P63079 26-473 N66R): as the sequence (P63079 26-473) above, with N41R counted along it

As for `COc1ccc2[nH]cc3c(=O)n(-c4ccc(N)cc4)nc-3c2c1` [Compound 6, 2-(4-Aminophenyl)-8-methoxy-2,5-dihydro-3H-pyrazolo[4,3-c]quinolin-3-one], the activity at 0.03 µM in assay [1] (read-out: efficacy, % of control current (GABA EC3-5 = 100%), 30 nM) worked out at 100%; in assay [3] (30 nM) it was 98 ± 3%. Further, in assay [1] (read-out: efficacy, % of control current (GABA EC3-5 = 100%), 300 nM), the activity at 0.3 µM was 153 ± 9.5%. In assay [1], the “Hill slope (nH)” value stood at 1.3±0.2. For the same molecule, the EC50 in assay [1] (co-applied with GABA EC3-5, read-out: EC50) worked out at 650 nM; in assay [5] it was 1870 nM. The current as % of control at 0.1 µM in assay [2] (100nM) is 75 ± 1%. In addition, in assay [2] (300nM), the current as % of control at 0.3 µM is 90 ± 10%. The current as % of control at 1 µM in assay [2] (1μM) was 90 ± 15%. Also, the current as % of control at 3 µM in assay [2] (3µM) worked out at 90 ± 20%. Also, the current as % of control at 10 µM in assay [2] (10μM) is 70 ± 10%. Besides, the current as % of control at 30 µM in assay [2] (30μM) is 115 ± 1%. In addition, the activity at 0.1 µM was 99.5 ± 5.5% in assay [3] (100 nM) and 95 ± 5% in assay [4] (100 nM). The activity at 1 µM in assay [3] (1 µM) came to 97.5 ± 9.5%; in assay [4] (1 µM), 97.5 ± 0.5%. Besides, the activity at 10 µM in assay [3] (10 µM) came out at 118 ± 9%. The activity at 30 µM in assay [3] (30 µM) was found to be 105 ± 8.3%. Further, the activity at 0.003 µM in assay [4] (3 nM) stood at 100 ± 1.9%.

Usually EC50 stands for the concentration needed to bring the measured effect to its halfway point.
